# Experimental data reported in patent US6518262B1, “22R-hydroxycholesta-8, 14-diene derivatives for the inhibition of meiosis” (Akzo Nobel N.V., priority 1999, dated 2003).
# Tests used:
# [1] = system: denuded oocytes (DO); test: Oocyte assay, antagonistic testing, inhibition of FF-Mas induced maturation in denuded oocytes (DO assay); format: cell-based, mice (B6D2-F1, strain C57BL×DBA); conditions: FF-Mas 5 μM, compound tested 5 μM, control (FF-Mas alone) in brackets
# Experimental: (§1) The meiosis inhibiting activity of the 22R-hydroxycholesta-8,14-diene derivatives of the invention is measured in an in vitro oocyte assay as the ability to inhibit the FF-Mas or 22S-hydroxy-FF-Mas induced maturation, in hypoxanthine media, in denuded oocytes (DO) or cumulus enclosed oocytes (CEO), respectively. Natural resumption of meiosis can be mimicked in vitro by addition of FF-Mas or other agonists to the culture medium containing hypoxanthine. The antagonistic activity of the compounds is measured as the ability to inhibit the FF-Mas or 22S-hydroxy-FF-Mas induced oocyte maturation in denuded oocytes or cumulus enclosed oocytes, respectively, in vitro. Ovaries are obtained from immature female mice (B6D2-F1, strain C57BL×DBA). At the age of 19, 20 or 21 days the mice are injected subcutaneously with a single dose of 20 IU follicle stimulating hormone (Humegon, Organon, The Netherlands) in saline. Forty-eight hours after follicle stimulating hormone injection mice are killed by cervical dislocation. The ovaries are removed, freed of extraneous tissue and placed in a multidish containing 0.5 ml preparation medium at 37° C. L-15 Leibovitz medium (Gibco, pH 7.3±0.1) supplemented with bovine serum albumin (3 mg·ml^−1), L-glutamine (0.23 mM), sodium pyruvate (2 mM) and hypoxanthine (4 mM) is used as preparation medium. The antral follicles of the ovaries are punctured under a dissecting microscope using two 27-gauge needles attached to two 1 ml syringes. […] At t=0 the number of oocytes with intact germinal vesicles (GV) or germinal vesicle break-down (GVBD) is counted under an inverted microscope with differential interference contrast equipment. […] At the end of the culture period the number of oocytes with GV or GVBD per group is counted. For statistical analysis the percentage germinal vesicle breakdown is calculated for each group in one block. These percentages are subjected to arcsin transformation, and differences between control and test compounds are analyzed by an ANOVA test for a randomized block design. […]
# [2] = system: naturally occurring meiosis activating substance; conditions: as disclosed in WO98/28323; cited from earlier work
# [3] = target: T1, LXRα receptor (Homo sapiens, UniProt Q13133); conditions: among a series of hydroxycholestane derivatives; cited from earlier work
# T1 sequence (Q13133 1-447): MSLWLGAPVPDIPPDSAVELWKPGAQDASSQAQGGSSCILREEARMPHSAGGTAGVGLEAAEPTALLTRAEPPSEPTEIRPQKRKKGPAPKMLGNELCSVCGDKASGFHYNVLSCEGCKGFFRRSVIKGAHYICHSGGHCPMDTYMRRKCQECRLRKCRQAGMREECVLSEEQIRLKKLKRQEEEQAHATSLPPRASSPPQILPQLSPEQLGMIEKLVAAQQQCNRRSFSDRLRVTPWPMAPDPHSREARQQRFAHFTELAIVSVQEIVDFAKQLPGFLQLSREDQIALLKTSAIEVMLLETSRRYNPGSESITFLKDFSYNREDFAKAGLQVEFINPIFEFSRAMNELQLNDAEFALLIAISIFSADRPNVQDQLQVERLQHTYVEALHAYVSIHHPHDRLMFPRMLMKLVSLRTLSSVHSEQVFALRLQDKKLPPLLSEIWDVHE
# [4] = system: cumulus enclosed oocytes (CEO); test: Oocyte assay, antagonistic testing, inhibition of 22S-hydroxy-FF-Mas induced maturation in cumulus enclosed oocytes (CEO assay); format: cell-based, mice (B6D2-F1, strain C57BL×DBA); conditions: 22S-hydroxy-FF-Mas 5 μM, control (22S-hydroxy-FF-Mas alone) in brackets
# Experimental: as §1
structure (smiles),measurement,setting,value
CC(C)CC[C@@H](O)[C@@H](C)[C@H]1CC[C@H]2[C@@H]3CC=C4C[C@@H](O)CC[C@]4(C)[C@H]3CC[C@]12C [22R-hydroxycholesterol],% GVBD DO assay exp.,[1],38(89) %
same,antagonist activity (meiosis regulating),[2],only weakly active as an antagonist
same,activation of the LXRα receptor,[3],most potent activator of the LXRα receptor
same,% GVBD CEO assay exp.,[4],52(89)^4%
